In patent US9040518B2, “Chemical compounds” (GlaxoSmithKline LLC, priority 2010, dated 2015):
Structures can show the parent of a compound that is named as a salt.

Molecular target: ileal bile acid cotransporter (iBAT) (Homo sapiens (Human), UniProt Q12908)
Test: Human iBAT inhibition: [3H]-taurocholate uptake into HEK293 cells expressing human iBAT
Format: cell-based
Details: HEK293 cells transduced with human iBAT Bacmam virus, 90 minutes at ambient temperature, mean of at least 2 datapoints
Description: Method for Determination of Human iBAT Inhibition:
In preparation for measurement of bile acid uptake into cells expressing the ileal bile acid cotransporter (iBAT), HEK293 cells were cultured in DMEM/F12 supplemented with 10% FBS. Twenty four hours prior to running an experiment, cells were harvested when at a confluence of 80-90%. Cells were seeded in poly-d-lysine coated plates at 50,000 cells per well, and human iBAT Bacmam virus was added such that each well contains 3.67×10e6 pfu (73.4pfu/cell). Each assay plate was covered with Breathe Easy Seal and placed in an incubator for 24 hours to allow expression of the transporter.
On the day of the uptake experiment, 10 mM HEPES was added to Hank's Balanced Salt Solution, and the pH was adjusted to 7.4 with TRIS (HBSSH). The assay buffer was prepared by adding […] [^3H]-taurocholate and 10 μM cold taurocholate to room temperature HBSSH. A separate washing buffer was prepared by adding 10 μM cold taurocholate to HBSSH (˜30 ml per assay plate) and placed on ice. Using 100% DMSO, 8 point, 3-fold dilution curves for each test compound was prepared starting at 200 μM. Similarly, an 8 point dose response curve was prepared of the control compound [(3R,5R)-3-butyl-3-ethyl-7,8-bis(methyloxy)-5-phenyl-2,3,4,5-tetrahydro-1,4-benzothiazepine 1,1-dioxide (Brieaddy, L. E. WO9605188, 1996)] starting at 1.8 mM. Drug plates were created by adding 3 μL of each concentration to a v-bottom 96-well plate then diluted 60-fold with 177 μL of assay buffer. Plates were removed from the incubator and allowed to cool to ambient temperature. Media was aspirated, and wells were washed once with 300 μL HBSSH. 50 μL of each dose response curve concentration was added in triplicate by column to the assay plates, reserving column 10 for control (assay buffer+1.67% DMSO) and columns 11 and 12 for the control compound. Plates were incubated at ambient temperature for 90 minutes then the plates were aspirated then washed 1× with 300 μL of wash buffer. 220 μL of Microscint 20 was added to each well, and the plates were sealed. The amount of [^3H]-taurocholate in cell lysate was quantitated using a microplate scintillation counter on the following day.
IC50's can be generated using the formula, y=(Vmax*x^n)/(K^n+x^n).

Sequence of ileal bile acid cotransporter (iBAT) (Q12908 whole entry): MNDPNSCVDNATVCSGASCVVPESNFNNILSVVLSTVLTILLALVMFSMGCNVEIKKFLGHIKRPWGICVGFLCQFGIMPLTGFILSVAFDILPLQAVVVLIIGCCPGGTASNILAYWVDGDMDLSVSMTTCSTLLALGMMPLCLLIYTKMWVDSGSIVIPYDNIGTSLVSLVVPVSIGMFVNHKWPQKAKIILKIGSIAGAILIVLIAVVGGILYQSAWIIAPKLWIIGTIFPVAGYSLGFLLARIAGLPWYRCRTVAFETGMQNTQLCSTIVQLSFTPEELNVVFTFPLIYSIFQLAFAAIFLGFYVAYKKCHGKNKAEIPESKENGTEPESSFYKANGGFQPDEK

IC50 | Compound
2 nM | CCCC[C@]1(CC)CS(=O)(=O)c2cc(CCCC(=O)O)c(OC)cc2[C@@H](c2ccccc2)N1 [Example 23, 4-[(3R,5R)-3-butyl-3-ethyl-7-(methyloxy)-1,1-dioxido-5-phenyl-2,3,4,5-tetrahydro-1,4-benzothiazepin-8-yl]butanoic acid trifluoroacetate salt]
6 nM | CCCC[C@]1(CC)CS(=O)(=O)c2cc(CNCC(=O)O)c(OC)cc2[C@@H](c2ccccc2)N1 [Example 25, N-{[(3R,5R)-3-butyl-3-ethyl-7-(methyloxy)-1,1-dioxido-5-phenyl-2,3,4,5-tetrahydro-1,4-benzothiazepin-8-yl]methyl}glycine]
43 nM | CCCC[C@]1(CC)CS(=O)(=O)c2cc(CNC(CC(=O)O)CC(=O)O)c(OC)cc2[C@@H](c2ccccc2)N1 [Example 26, 3-({[(3R,5R)-3-butyl-3-ethyl-7-(methyloxy)-1,1-dioxido-5-phenyl-2,3,4,5-tetrahydro-1,4-benzothiazepin-8-yl]methyl}amino)pentanedioic acid]
190 nM | CCCC[C@]1(CC)CS(=O)(=O)c2cc(CNC(C)(C)C(=O)O)c(OC)cc2[C@@H](c2ccccc2)N1 [Example 32, N-{[(3R,5R)-3-butyl-3-ethyl-7-(methyloxy)-1,1-dioxido-5-phenyl-2,3,4,5-tetrahydro-1,4-benzothiazepin-8-yl]methyl}-2-methylalanine trifluoroacetate salt]
2700 nM | CCCC[C@]1(CC)CS(=O)(=O)c2cc(CNCCP(=O)(O)O)c(OC)cc2[C@@H](c2ccccc2)N1 [Example 33, [2-({[(3R,5R)-3-butyl-3-ethyl-7-(methyloxy)-1,1-dioxido-5-phenyl-2,3,4,5-tetrahydro-1,4-benzothiazepin-8-yl]methyl}amino)ethyl]phosphonic acid trifluoroacetate salt]
249 nM | CCCC[C@]1(CC)CS(=O)(=O)c2cc(CNC(=O)CP(=O)(O)O)c(OC)cc2[C@@H](c2ccccc2)N1 [Example 38, [2-({[(3R,5R)-3-butyl-3-ethyl-7-(methyloxy)-1,1-dioxido-5-phenyl-2,3,4,5-tetrahydro-1,4-benzothiazepin-8-yl]methyl}amino)-2-oxoethyl]phosphonic acid trifluoroacetate salt]
619 nM | CCCC[C@]1(CC)CS(=O)(=O)c2cc(CNC(=O)CNCC(=O)O)c(OC)cc2[C@@H](c2ccccc2)N1 [Example 39, N-[2-({[(3R,5R)-3-butyl-3-ethyl-7-(methyloxy)-1,1-dioxido-5-phenyl-2,3,4,5-tetrahydro-1,4-benzothiazepin-8-yl]methyl}amino)-2-oxoethyl]glycine trifluoroacetate salt]
3330 nM | CCCC[C@]1(CC)CS(=O)(=O)c2cc(CNC(=O)CNC(CC(=O)O)CC(=O)O)c(OC)cc2[C@@H](c2ccccc2)N1 [Example 41, 3-{[2-({[(3R,5R)-3-butyl-3-ethyl-7-(methyloxy)-1,1-dioxido-5-phenyl-2,3,4,5-tetrahydro-1,4-benzothiazepin-8-yl]methyl}amino)-2-oxoethyl]amino}pentanedioic acid trifluoroacetate salt]
7680 nM | CCCC[C@]1(CC)CS(=O)(=O)c2cc(CNC(CC(=O)O)CC(=O)O)c(OC)cc2[C@H](c2ccccc2)N1 [Example 43, 3-({[(3R,5S)-3-butyl-3-ethyl-7-(methyloxy)-1,1-dioxido-5-phenyl-2,3,4,5-tetrahydro-1,4-benzothiazepin-8-yl]methyl}amino)pentanedioic acid]

Further lines, the molecule ahead of its results:

Compound | IC50
CCCC[C@]1(CC)CS(=O)(=O)c2cc(CCCP(=O)(O)O)c(OC)cc2[C@@H](c2ccccc2)N1 [Example 21, {3-[(3R,5R)-3-butyl-3-ethyl-7-(methyloxy)-1,1-dioxido-5-phenyl-2,3,4,5-tetrahydro-1,4-benzothiazepin-8-yl]propyl}phosphonic acid trifluoroacetate salt] | 51 nM
CCCC[C@]1(CC)CS(=O)(=O)c2cc(CCCNCCS(=O)(=O)O)c(OC)cc2[C@@H](c2ccccc2)N1 [Example 22, 2-({3-[(3R,5R)-3-butyl-3-ethyl-7-(methyloxy)-1,1-dioxido-5-phenyl-2,3,4,5-tetrahydro-1,4-benzothiazepin-8-yl]propyl}amino)ethanesulfonic acid] | 2440 nM
CCCC[C@]1(CC)CS(=O)(=O)c2cc(CN[C@@H](CC(=O)O)C(=O)O)c(OC)cc2[C@@H](c2ccccc2)N1 [Example 27, N-{[(3R,5R)-3-butyl-3-ethyl-7-(methyloxy)-1,1-dioxido-5-phenyl-2,3,4,5-tetrahydro-1,4-benzothiazepin-8-yl]methyl}-L-aspartic acid trifluoroacetate salt] | 47 nM
CCCC[C@]1(CC)CS(=O)(=O)c2cc(CN[C@H](CC(=O)O)C(=O)O)c(OC)cc2[C@@H](c2ccccc2)N1 [Example 28, N-{[(3R,5R)-3-butyl-3-ethyl-7-(methyloxy)-1,1-dioxido-5-phenyl-2,3,4,5-tetrahydro-1,4-benzothiazepin-8-yl]methyl}-D-aspartic acid trifluoroacetate salt] | 55 nM
CCCC[C@]1(CC)CS(=O)(=O)c2cc(CN(C)CCC(=O)O)c(OC)cc2[C@@H](c2ccccc2)N1 [Example 29, N-{[(3R,5R)-3-butyl-3-ethyl-7-(methyloxy)-1,1-dioxido-5-phenyl-2,3,4,5-tetrahydro-1,4-benzothiazepin-8-yl]methyl}-N-methyl-β-alanine trifluoroacetate salt] | 367 nM
CCCC[C@]1(CC)CS(=O)(=O)c2cc(CNCCCC(=O)O)c(OC)cc2[C@@H](c2ccccc2)N1 [Example 30, 4-({[(3R,5R)-3-butyl-3-ethyl-7-(methyloxy)-1,1-dioxido-5-phenyl-2,3,4,5-tetrahydro-1,4-benzothiazepin-8-yl]methyl}amino)butanoic acid trifluoroacetate salt] | 1290 nM
CCCC[C@]1(CC)CS(=O)(=O)c2cc(CN3CCCC3=O)c(OC)cc2[C@@H](c2ccccc2)N1 [Example 31, 1-{[(3R,5R)-3-butyl-3-ethyl-7-(methyloxy)-1,1-dioxido-5-phenyl-2,3,4,5-tetrahydro-1,4-benzothiazepin-8-yl]methyl}-2-pyrrolidinone trifluoroacetate salt] | 407 nM
CCCC[C@]1(CC)CS(=O)(=O)c2cc(CNCCP(=O)(O)OCC)c(OC)cc2[C@@H](c2ccccc2)N1 [Example 34, ethyl hydrogen [2-({[(3R,5R)-3-butyl-3-ethyl-7-(methyloxy)-1,1-dioxido-5-phenyl-2,3,4,5-tetrahydro-1,4-benzothiazepin-8-yl]methyl}amino)ethyl]phosphonate trifluoroacetate salt] | 2790 nM
CCCC[C@]1(CC)CS(=O)(=O)c2cc(CNCCS(=O)(=O)O)c(OC)cc2[C@@H](c2ccccc2)N1 [Example 35, 2-({[(3R,5R)-3-butyl-3-ethyl-7-(methyloxy)-1,1-dioxido-5-phenyl-2,3,4,5-tetrahydro-1,4-benzothiazepin-8-yl]methyl}amino)ethanesulfonic acid ammonium salt] | 54 nM
CCCC[C@]1(CC)CS(=O)(=O)c2cc(CN(CCS(=O)(=O)O)CCS(=O)(=O)O)c(OC)cc2[C@@H](c2ccccc2)N1 [Example 36, 2,2′-({[(3R,5R)-3-butyl-3-ethyl-7-(methyloxy)-1,1-dioxido-5-phenyl-2,3,4,5-tetrahydro-1,4-benzothiazepin-8-yl]methyl}imino)diethanesulfonic acid trifluoroacetate salt] | 365 nM
CCCC[C@]1(CC)CS(=O)(=O)c2cc(CNC(=O)CS(=O)(=O)O)c(OC)cc2[C@@H](c2ccccc2)N1 [Example 37, 2-({[(3R,5R)-3-butyl-3-ethyl-7-(methyloxy)-1,1-dioxido-5-phenyl-2,3,4,5-tetrahydro-1,4-benzothiazepin-8-yl]methyl}amino)-2-oxoethanesulfonic acid] | 9 nM
CCCC[C@]1(CC)CS(=O)(=O)c2cc(CNC(=O)CNCCP(=O)(O)O)c(OC)cc2[C@@H](c2ccccc2)N1 [Example 40, (2-{[2-({[(3R,5R)-3-butyl-3-ethyl-7-(methyloxy)-1,1-dioxido-5-phenyl-2,3,4,5-tetrahydro-1,4-benzothiazepin-8-yl]methyl}amino)-2-oxoethyl]amino}ethyl)phosphonic acid trifluoroacetate salt] | 4670 nM
CCCC[C@]1(CC)CS(=O)(=O)c2cc(CNC(=O)CCS(=O)(=O)O)c(OC)cc2[C@@H](c2ccccc2)N1 [Example 42, 3-({[(3R,5R)-3-butyl-3-ethyl-7-(methyloxy)-1,1-dioxido-5-phenyl-2,3,4,5-tetrahydro-1,4-benzothiazepin-8-yl]methyl}amino)-3-oxo-1-propanesulfonic] | 128 nM
